Laboratory results from patent US10144715B2, “Piperazine derivatives as liver X receptor modulators” (priority 2014, dated 2018).
Read-outs that look alike come from different tables or passages of the source.

Columns and labels:
[1] = molecular target: T1, Gal4 DNA binding domain fused to the LBD of LXRα in HEK293 cells (Homo sapiens (Human), UniProt Q13133); assay: LXR luciferase transcriptional reporter gene assay, agonist mode, LXRα; format: cell-based; conditions: for EC50: read-out: Cell LXRα EC50
[2] = molecular target: T1, Gal4 DNA binding domain fused to the LBD of LXRα in HEK293 cells; assay: LXR luciferase transcriptional reporter gene assay, antagonist mode (200 nM T0901317), LXRα; format: cell-based; conditions: for IC50: read-out: Cell LXRα IC50
LXR α LBD protein [3] = molecular target: T2, LXR α LBD protein (Homo sapiens (Human), UniProt Q13133); assay: LXR α radioligand binding assay (SPA, competition with [3H]TO901317); conditions: read-out: LXRα Binding Ki
LXR β LBD protein [4] = molecular target: T3, LXR β LBD protein (Homo sapiens (Human), UniProt P55055); assay: biochemical; format: binding; conditions: read-out: LXRβ Binding Ki
Target sequence in this assay (P55055 222-460 limits assumed): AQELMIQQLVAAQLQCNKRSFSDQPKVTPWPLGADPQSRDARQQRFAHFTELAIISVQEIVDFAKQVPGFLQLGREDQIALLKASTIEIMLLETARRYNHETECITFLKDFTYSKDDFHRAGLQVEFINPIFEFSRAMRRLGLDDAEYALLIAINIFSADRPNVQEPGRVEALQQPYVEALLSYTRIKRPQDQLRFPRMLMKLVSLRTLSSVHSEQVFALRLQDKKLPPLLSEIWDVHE

[5] = molecular target: Gal4 DNA binding domain fused to the LBD of LXRβ in HEK293 cells (Homo sapiens (Human), UniProt P55055); assay: cell-based
LXR α LBD protein [6] = molecular target: T2, LXR α LBD protein; assay: Human LXRα coactivator recruitment FRET assay, agonist mode; format: biochemical
Summary of the method: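 Time-resolved FRET (delay 100 µs, window 200 µs) after 2 h rt incubation of compound with 10 nM (2×) GST-tagged LXRα or LXRβ LBD plus 200 nM fluorescein-SRC2-3 and 20 nM Tb-anti-GST (4×). Percent control vs concentration fit to four-parameter model; EC50 at inflection.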

LXR β LBD protein [7] = molecular target: T3, LXR β LBD protein; assay: biochemical; format: biochemical; conditions: for EC50: read-out: FRET LXRβ EC50
Procedure: Two μL of the DMSO solutions were transferred to the plate and 38 μL of 10 nM LXRα-LBD or LXRβ-LBD (2×) were added immediately to the wells. The plate was shaken for 5 min at rt on an orbital micro shaker (DPC MicroMix® 5), after which 40 μL of 200 nM fluorescein-SRC2-3 peptide and 20 nM Terbium-anti-GST-antibody (Cat# PV3550, Life Technologies, Grand Island, N.Y.) solution (4×) were added to all. The plate was sealed and shaken for 2 min at rt, and incubated at rt for 2 h without agitation. […] The delay and window times were set at 100 and 200 microseconds, respectively. […] The percent control vs. compound concentration data were fit into a four-parameter model, and EC50 values were calculated from the fit as the concentrations corresponding to the inflection points on the concentration-response curves.
Target sequence in this assay (P55055 222-460): as the sequence (P55055 222-460 limits assumed) above

[8] = antagonist mode, 200 nM T0901317, HEK293 reporter gene assay
[9] = Biological Test Example 2, agonist mode
[10] = Biological Test Example 2, agonist mode, read-out: Cell LXRβ EC50
[11] = Biological Test Example 3, agonist mode
[12] = agonist mode, read-out: Cell LXRβ EC50

T1 sequence (Q13133 209-447): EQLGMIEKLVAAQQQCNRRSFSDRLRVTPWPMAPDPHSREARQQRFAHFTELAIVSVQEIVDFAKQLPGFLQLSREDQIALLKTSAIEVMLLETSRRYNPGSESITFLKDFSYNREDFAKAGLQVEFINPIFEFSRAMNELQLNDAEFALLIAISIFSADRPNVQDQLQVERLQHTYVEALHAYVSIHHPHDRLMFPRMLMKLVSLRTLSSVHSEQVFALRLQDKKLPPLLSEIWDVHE
T2 sequence (Q13133 209-447): as above
Chain of Gal4 DNA binding domain fused to the LBD of LXRβ in HEK293 cells (P55055 222-460 limits assumed): as the sequence (P55055 222-460 limits assumed) above

Row | Compound | Cell LXRα efficacy [1] | EC50 ([1]; agonist mode) | IC50 [2, 8] | Ki (LXR α LBD protein [3]) | Ki (LXR β LBD protein [4]) | EC50 [5] | Cell LXRβ efficacy ([5]; agonist mode) | EC50 (LXR α LBD protein [6]; agonist mode) | FRET LXRα efficacy (LXR α LBD protein [6]; agonist mode) | FRET LXRβ efficacy (LXR β LBD protein [7]; agonist mode) | EC50 (LXR β LBD protein [7]) | EC50 [1] | also measured
1 | CC(C)[C@@H]1CN(c2ccc(C#N)c(S(C)(=O)=O)c2)CCN1c1nccc(C(F)(F)F)n1 [7-17, (R)-4-(3-isopropyl-4-(4-(trifluoromethyl)pyrimidin-2-yl)piperazin-1-yl)-2-(methylsulfonyl)benzonitrile] | 1115 (69) % | 1.11 µM | 6030 nM |  |  |  |  |  |  |  |  |  | 
2 | COCCN(C)Cc1cnc(N2CCN(c3ccc(F)c(S(C)(=O)=O)c3)C[C@H]2C(C)C)nc1C(F)(F)F [15-10, (R)-N-((2-(4-(4-fluoro-3-(methylsulfonyl)phenyl)-2-isopropylpiperazin-1-yl)-4-(trifluoromethyl)pyrimidin-5-yl)methyl)-2-methoxy-N-methylethan-1-amine] | 5353 (16) % | 5.35 µM | 1620 nM | 948 nM |  |  |  |  |  |  |  |  | 
3 | CS(=O)(=O)c1cccc(N2CCN(C[C@@H]3CCC[C@@H](C(F)(F)F)C3)[C@@H](c3ccc(F)cc3)C2)c1 (single isomer, unassigned) [48-39] |  | > 20 µM | 78 nM |  |  |  |  |  |  |  |  |  | Cell LXRα efficacy [2]: 78 (86) %
4 | CC(C)c1ccc(CN2CCN(c3cccc(S(C)(=O)=O)c3)CC2c2ccccc2)cn1 (centres unmarked) [46-42, 1-((6-isopropylpyridin-3-yl)methyl)-4-(3-(methylsulfonyl)phenyl)-2-phenylpiperazine] |  | > 20 µM |  | > 3330 nM | > 2500 nM | 5900 nM | 5895 (9) % | 984 nM | 53% | 1048 (53) % | 1050 nM |  | 
5 | CC(C)(O)c1ccc(CN2CCN(c3cccc(S(C)(=O)=O)c3)C[C@@H]2c2ccccc2)cc1 [10-12, (S)-2-(4-((4-(3-(methylsulfonyl)phenyl)-2-phenylpiperazin-1-yl)methyl)phenyl)propan-2-ol] |  |  |  | > 3330 nM | > 2500 nM | > 20000 nM |  | 1370 nM | 18% | 1141 (33) % | 1140 nM | > 20 µM | 
6 | CS(=O)(=O)c1cc(N2CCN(C[C@H]3CC[C@H](C(F)(F)F)CC3)[C@@H](c3ccccc3)C2)ccc1C#N (single isomer, unassigned) [50-4] | 3065 (19) % |  |  | 2720 nM |  |  |  |  |  |  |  | 3.06 µM | Ki (LXR β LBD protein [4]; Biological Test Example 1): 516 nM; Cell LXRβ efficacy [5, 9]: 23%; EC50 [5, 10]: 1280 nM; EC50 (LXR α LBD protein [6]; [11]): 9560 nM; FRET LXRα efficacy (LXR α LBD protein [6]; [11]): 69%; FRET LXRβ efficacy (LXR β LBD protein [7]; [11]): 82%; EC50 (LXR β LBD protein [7]; [11]): 1630 nM
7 | CC(C)c1ccc(CN2CCN(c3cccc(S(C)(=O)=O)c3)C[C@H]2c2ccccc2)cc1 [46-7, (R)-1-(4-isopropylbenzyl)-4-(3-(methylsulfonyl)phenyl)-2-phenylpiperazine] |  |  |  | > 3330 nM | > 2500 nM | > 20000 nM |  | > 50000 nM |  |  | > 50000 nM | > 20 µM | 
8 | CS(=O)(=O)c1cccc(N2CCN(c3nccc(C(F)(F)F)n3)[C@H](c3ccc(F)cc3)C2)c1 [8-1, (R)-2-(2-(4-fluorophenyl)-4-(3-(methylsulfonyl)phenyl)piperazin-1-yl)-4-(trifluoromethyl)pyrimidine] | 2160 (16) % | 2.16 µM |  | 454 nM | 36 nM | 493 nM | 493 (31) % | 665 nM | 41% | 62 (75) % | 62 nM |  | 
9 | CS(=O)(=O)c1cc(N2CCN(C[C@H]3CC[C@@H](C(F)(F)F)CC3)[C@H](c3ccccc3)C2)ccc1C(N)=O (single isomer, unassigned) [17-38] | 4828 (13) % |  |  | 3130 nM | 753 nM |  | 18% | 3370 nM | 34% | 71% |  | 4.83 µM | EC50 [5, 12]: 1790 nM; EC50 (LXR β LBD protein [7]; agonist mode): 561 nM
10 | CC(C)[C@@H]1CN(c2ccc(F)c(S(C)(=O)=O)c2)CCN1c1ncc(Cc2ccc(C(=O)O)cc2)c(C(F)(F)F)n1 [Cpd No 32-1, (R)-4-((2-(4-(4-fluoro-3-(methylsulfonyl)phenyl)-2-isopropylpiperazin-1-yl)-4-(trifluoromethyl)pyrimidin-5-yl)methyl)benzoic acid] | 4667 (6) % |  |  | 197 nM |  |  |  |  |  |  |  | 4.67 µM | IC50 [2]: 544 nM
11 | CS(=O)(=O)c1cc(N2CCN(C[C@H]3CC[C@H](C(F)(F)F)CC3)[C@@H](c3ccccc3)C2)ccc1C(N)=O (single isomer, unassigned) [17-37] | 16011 (50) % |  |  | 3210 nM | 1010 nM |  | 24% | 605 nM | 53% | 85% |  | 16 µM | EC50 [5, 12]: 3530 nM; EC50 (LXR β LBD protein [7]; agonist mode): 355 nM
12 | Cc1ccccc1[C@H]1CN(c2cccc(S(C)(=O)=O)c2)CCN1Cc1ccc(C(F)(F)F)nc1 (single isomer, unassigned) [46-46] |  | > 20 µM |  | > 3330 nM | 1980 nM | 1990 nM | 1989 (4) % | 6690 nM | 30% | 1214 (51) % | 1210 nM |  | 
13 | CS(=O)(=O)c1cccc(N2CCN(C[C@H]3CC[C@@]4(CC3)CC4(F)F)[C@@H](c3ccccc3)C2)c1 (single isomer, unassigned) [48-69] | 425 (69) % |  |  | 111 nM |  |  |  |  |  |  |  | 0.425 µM | Ki (LXR β LBD protein [4]; Biological Test Example 1): 14 nM; Cell LXRβ efficacy [5, 9]: 43%; EC50 [5, 10]: 151 nM; IC50 [2]: > 10000 nM
14 | CS(=O)(=O)c1cccc(N2CCN(C[C@H]3CCC[C@H](C(F)(F)F)C3)[C@@H](c3ccc(F)cc3)C2)c1 [48-40, (S)-2-(4-fluorophenyl)-4-(3-(methylsulfonyl)phenyl)-1-(((1S,3S)-3-(trifluoromethyl)cyclohexyl)methyl)piperazine] |  | > 20 µM | > 10000 nM | 2480 nM |  |  |  |  |  |  |  |  | 
15 | CS(=O)(=O)c1cccc(N2CCN(CC3CCCOC3)[C@@H](c3ccccc3)C2)c1 (stereo partly drawn) [51-4, (2S)-4-(3-(methylsulfonyl)phenyl)-2-phenyl-1-((tetrahydro-2H-pyran-3-yl)methyl)piperazine] |  |  |  | > 3330 nM | 546 nM | > 20000 nM |  |  |  |  | > 50000 nM | > 20 µM | EC50 (LXR α LBD protein [6]; [11]): > 50000 nM
16 | CS(=O)(=O)c1cccc(N2CCN(C[C@@H]3CCC[C@H](C(F)(F)F)C3)[C@@H](c3ccc(F)cc3)C2)c1 (single isomer, unassigned) [48-41] | 1459 (7) % | 1.46 µM | 421 nM | 196 nM |  |  |  |  |  |  |  |  | Cell LXRα efficacy [2]: 421 (83) %
